ChEMBL document CHEMBL4834465, “Potent SARS-CoV-2 mRNA Cap Methyltransferase Inhibitors by Bioisosteric Replacement of Methionine in SAM Cosubstrate” (ACS Med Chem Lett, 2021)

Tests used:
[1] = target: T1, Glycine N-methyltransferase (Homo sapiens, UniProt Q14749); experiment: Inhibition of N-terminal His-tagged human recombinant Glycine-N-methyltransferase (1 to 295 residues) expressed in Escherichia coli using glycine and SAM as substrate incubated for 30 mins by HTRF assay
T1 sequence (Q14749 whole entry): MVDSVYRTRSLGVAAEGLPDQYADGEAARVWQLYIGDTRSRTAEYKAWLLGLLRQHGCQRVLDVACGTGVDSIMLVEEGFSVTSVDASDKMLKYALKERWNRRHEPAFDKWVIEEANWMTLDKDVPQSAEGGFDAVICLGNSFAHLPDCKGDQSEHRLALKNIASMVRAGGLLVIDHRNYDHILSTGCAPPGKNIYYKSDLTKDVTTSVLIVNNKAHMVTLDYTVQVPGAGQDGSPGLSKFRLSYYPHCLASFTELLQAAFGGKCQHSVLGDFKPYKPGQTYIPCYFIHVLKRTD

[2] = mouse, balb/3t3 clone a31, 48 h
[3] = tested on: HepG2; conditions: human, hepg2, 48 h
[4] = tested on: A549; conditions: human, a549, 48 h

Compound | IC50 ([1]; read-out: IC50) [nM] | CC50 [2] [µM] | CC50 [3] [µM] | CC50 [4] [µM] | IC50 [1]
Nc1ncnc2c1ncn2[C@@H]1O[C@H](CSCc2cc(O)[nH]n2)[C@@H](O)[C@H]1O | 640 | > 200 | > 100 | > 200 | 
Nc1ncnc2c1ncn2[C@@H]1O[C@H](CSc2cccc(C(=O)O)c2)[C@@H](O)[C@H]1O | 150 | > 200 | > 100 | > 200 | 
Nc1ncnc2c1ncn2[C@@H]1O[C@H](C(=O)N2CCN(CC(=O)O)CC2)[C@@H](O)[C@H]1O | 240000 |  |  |  | 
Nc1ncnc2c1ncn2[C@@H]1O[C@H](C(=O)Nc2cccc(C(=O)O)c2)[C@@H](O)[C@H]1O | 2200 | > 200 | > 100 | > 200 | 
Nc1ncnc2c1ncn2[C@@H]1O[C@H](CN(CCCC(=O)O)CCc2ccccc2)[C@@H](O)[C@H]1O | 2700 | > 200 | > 100 | > 200 | 
Nc1ncnc2c1ncn2[C@@H]1O[C@H](CSCCc2c[nH]nn2)[C@@H](O)[C@H]1O | 390 | > 200 | > 100 | > 200 | 
Nc1ncnc2c1ncn2[C@@H]1O[C@H](CNCCc2ccccc2)[C@@H](O)[C@H]1O | 207000 |  |  |  | 
Nc1ncnc2c1ncn2[C@@H]1O[C@H](CNCc2cc[nH]n2)[C@@H](O)[C@H]1O |  |  |  |  | Not Active
Nc1ncnc2c1ncn2[C@@H]1O[C@H](CSCc2cccc(C(=O)O)c2)[C@@H](O)[C@H]1O | 8.6 | > 200 | > 100 | > 200 | 
Nc1ncnc2c1ncn2[C@@H]1O[C@H](CSCc2ccc3ccccc3c2)[C@@H](O)[C@H]1O | 260 | > 200 | > 100 | > 200 | 
Nc1ncnc2c1ncn2[C@@H]1O[C@H](C[C@@H](N)CC[C@H](N)C(=O)O)[C@@H](O)[C@H]1O [SINEFUNGIN] |  | 99.2 | > 100 | 72.9 | 
